The text below walks through data of ChEMBL document CHEMBL1629473, “Convenient synthesis and biological profile of 5-amino-substituted 1,2,4-oxadiazole derivatives” (Eur J Med Chem, 2010).

SMILES strings stand for the structures.

Series [1] relates to Radical scavenging activity. As to the kind of experiment: Antioxidant activity assessed as DPPH free radical scavenging activity at 100 uM after 20 mins. The class given is functional. For orientation: The DPPH test is a chemical assay of radical scavenging.
Series [2] has as its system Radical scavenging activity. As to the kind of experiment: Antioxidant activity assessed as DPPH free radical scavenging activity at 100 uM after 60 mins. Format: functional.
Series [3] is described as follows: Induction of NO release in phosphate buffer pH 7.4 containing 1 mM L-cysteine assessed as nitrite level at 100 uM after 60 mins by Griess assay. Format: physicochemical. To be noted: pH 7.4, 1 h. In general terms: The Griess reaction detects nitrite, a stable product of nitric oxide.
The nature of series [4]: Induction of NO release in phosphate buffer pH 7.4 containing 5 mM L-cysteine assessed as nitrite level at 100 uM after 60 mins by Griess assay. The class given is physicochemical. To be noted: pH 7.4, 1 h.
The nature of series [5]: Induction of NO release in phosphate buffer pH 7.4 containing 0.5 mM L-cysteine assessed as nitrite level at 100 uM after 60 mins by Griess assay. Format: physicochemical. To be noted: pH 7.4, 1 h.
Series [6] can be described thus: Induction of NO release in phosphate buffer pH 7.4 containing 0.5 mM thiophenol assessed as nitrite level at 100 uM after 60 mins by Griess assay. The class given is physicochemical. To be noted: pH 7.4, 1 h.
In series [7] the test system is Radical scavenging activity. As to the kind of experiment: Antioxidant activity assessed as DPPH free radical scavenging activity at 50 uM after 20 mins. Format: functional.
Series [8] deals with Radical scavenging activity. As to the kind of experiment: Antioxidant activity assessed as DPPH free radical scavenging activity at 50 uM after 60 mins. The class given is functional.
For another series, the system named is Rattus norvegicus. Description: Antiinflammatory activity in Fisher 344 rat assessed as inhibition of carrageenan-induced paw edema at 0.01 mmol/kg, ip measured 3.5 hrs after carrageenan challenge relative to control. The arrangement: scale not given: the % may be the effect or the level left. The class given is functional.
The target of series [9] is Lipoxygenase (Glycine max) (UniProt Q39829). Description: Inhibition of soybean lipoxygenase at 100 uM by UV spectrophotometry. Further details: scale not given: the % may be the effect or the level left.

For `CC(=O)N(c1nc(-c2cccc([N+](=O)[O-])c2)no1)C1CCCCC1`, the Activity in series [1] is 1%; in [2] it was 2%; in series [3], 33%; in series [4], 33%; in series [5], 42.5%; in series [6] it was 71%.

In the case of `COc1ccc(C(=N)NO)cc1`, the Activity in [7] stood at 35%; in series [1], 57%; in [8], 44%; in series [2] it was 57%; in the series on Rattus norvegicus, 45%; in series [3], 5%. Further, the Activity in series [4] and in series [5] was 4% in each case.

As to `N/C(=N\O)c1ccccc1`, the Activity was 8% in series [7], 19% in series [1] and 30% in [2].

Turning to `O=[N+]([O-])c1ccc(Cc2noc(NC3CCCCC3)n2)cc1`, the Activity in [1] and in series [2] was 7% each time.

In series [9], `O=[N+]([O-])c1ccc(-c2noc(NC3CCCCC3)n2)cc1` gave an Activity of more than 5%.

`COc1ccc2c(c1)c(CC(=O)O)c(C)n2C(=O)c1ccc(Cl)cc1` [INDOMETHACIN]: in the series with Rattus norvegicus, the Activity was 47%.

For `Cc1ccc(-c2noc(NCCCN(C)C)n2)cc1`, the Activity came to 6% in series [1], 8% in [2], 7.5% in series [5] and 21% in series [6].

With `CC(Cc1ccc(O)c(O)c1)C(C)Cc1ccc(O)c(O)c1` (configuration not stated), the Activity in series [7] was determined as 77%; in series [1], 84%; in [8] it was 81%; in [2], 91%; in series [9], 83.7%.

In the case of `O=[N+]([O-])c1cccc(-c2noc(NC3CCCCC3)n2)c1`, the Activity in series [1] turned out to be 11%; in series [2] it was 11%; in series [9] it was 74%; in the series on Rattus norvegicus, 40%; in series [4], 3%; in [6], 3%.

As for `Cc1ccc(/C(N)=N/O)cc1`, the Activity in series [7] came out at 15%; in series [1] it was 21%; in [8], 14%; in series [2], 26%; in the series with Rattus norvegicus, 41%; in [4] it was 8%.

For the molecule `CC(C)Nc1nc(Cc2ccc(Cl)cc2)no1`, the Activity came out at 8% in [1]; 11% in [2]; 43% with Rattus norvegicus; 2% in series [4]; 4% in [6].

For `CC(=O)N(c1nc(-c2ccc([N+](=O)[O-])cc2)no1)C1CCCCC1`, the Activity was 3% in series [1]; 4% in [2]; 8% in [3]; 8% in series [4]; 12% in [5]; 47% in [6].

Consider `CN(C)CCCNc1nc(-c2ccc([N+](=O)[O-])cc2)no1`, for which the Activity in [1] turned out to be 6%; in [2], 4%; in [9], 67%; in series [5], 7%; in series [6], 24%.

Turning to `N/C(=N\O)c1ccc([N+](=O)[O-])cc1`, the Activity was 9% in series [1], 18% in series [2] and 24% in series [9].

In the case of `c1ccc(Cc2noc(NC3CCCCC3)n2)cc1`, the Activity in [1] stood at 9%; in series [2], 9%; in series [6], 7.5%.

As for `N/C(=N\O)c1cccc([N+](=O)[O-])c1`, the Activity in series [1] is 7%; in series [2], 15%; in [9], 32%; with Rattus norvegicus, 26%.

With `NC(Cc1ccc(Cl)cc1)=NO`, the Activity in [6] came out at 3%.

Regarding `NC(=NO)c1cccc([N+](=O)[O-])c1`, the Activity in [4] stood at 4%.

Regarding `Clc1ccc(Cc2noc(NC3CCCCC3)n2)cc1`, the Activity in series [1] and in series [2] was 7% each time.

On to `CC(C)Nc1nc(C2CCCCC2)no1`, for which the figures for the Activity in series [1] and in series [2] were 8% and 11%, respectively.

For the molecule `COc1ccc(-c2noc(NC3CCCCC3)n2)cc1`, the Activity in series [3] amounted to 2%; in series [4] it was 14%.

Regarding `CCNc1nc(-c2ccc([N+](=O)[O-])cc2)no1`, in series [2], the Activity came out at 9%.

Consider `CC(=O)N(c1nc(-c2cccc([N+](=O)[O-])c2)no1)C(C)C`, for which the Activity came out at 3% in series [1], 4% in [2] and 55% in series [6].

In the case of `NC(=NO)c1ccccc1` [BENZAMIDOXIME], the Activity in series [5] was found to be 2%; in [6], 6%.

For `CC(=O)N(c1nc(-c2ccc(C)cc2)no1)C1CCCCC1`, the Activity in [1] worked out at 3%; in [2], 3%; in series [9], 25.5%.

`Cc1ccc(-c2noc(NC(C)C)n2)cc1`: the Activity in [2] stood at 18%.

In the case of `CC(C)Nc1nc(-c2cccc([N+](=O)[O-])c2)no1`, the Activity was 6% in series [1], 8% in series [2], 88% in series [9] and 7% in [6].

`CC(=O)N(c1nc(Cc2ccc(Cl)cc2)no1)C1CCCCC1`: the Activity came out at 2% in [1]; 5% in [2]; 18% in series [3]; 12% in series [4]; 27.5% in series [5]; 39% in series [6].

As for `CCCc1noc(NC(C)C)n1`, the Activity in series [1] and in series [2] was 7% each time.

`c1ccc(-c2noc(NC3CCCCC3)n2)cc1`: the Activity is 38% in series [9]; 51% in the series with Rattus norvegicus; 2% in [3]; 19% in series [4]; 4% in series [5].

Consider `N/C(Cc1ccc(Cl)cc1)=N\O`, for which the Activity in [2] is 16%; in series [9], 19%; in the series on Rattus norvegicus it was 47%.

Turning to `Cc1ccc(-c2noc(NC3CCCCC3)n2)cc1`, in the series with Rattus norvegicus, the Activity was found to be 33%.
